How the values were obtained:
Staphylococcus aureus = assay: standard microtiter assay, minimum inhibitory concentration; assay type: cell-based; settings: for minimum inhibitory concentration of antibiotic, Test Organism 1: Test Organism 1, strain of Staphylococcus aureus; for minimum inhibitory concentration of antibiotic, Test Organism 2: Test Organism 2, strain of Staphylococcus aureus; for minimum inhibitory concentration of antibiotic, Test Organism 3: Test Organism 3, strain of Staphylococcus aureus; for minimum inhibitory concentration of antibiotic, Test Organism 4: Test Organism 4, strain of Staphylococcus aureus; for minimum inhibitory concentration of antibiotic, Test Organism 5: Test Organism 5, strain of Staphylococcus aureus
From the text: (§1) Representative results of standard microtiter assays are reported in Table 1 which follows, as the minimum inhibitory concentration of antibiotic (mg/ml). In Table 1, test organisms 1-5 were different strains of Staphylococcus aureus; 6, 8, 11, 13 and 14 were different strains of Staphylococcus epidermidis; 7 was a Staphylococcus haemolyticus; 9 and 10 were different strains of Streptococcus faecalis; and 12 was a Staphylococcus saprophyticus.

[1] = system: Staphylococcus haemolyticus; assay: as above; assay type: cell-based; settings: Test Organism 7, Staphylococcus haemolyticus
From the text: as §1

[2] = system: Staphylococcus saprophyticus; assay: as above; assay type: cell-based; settings: Test Organism 12, Staphylococcus saprophyticus
From the text: as §1

Streptococcus faecalis = assay: as above; assay type: cell-based; settings: for minimum inhibitory concentration of antibiotic, Test Organism 9: Test Organism 9, strain of Streptococcus faecalis; for minimum inhibitory concentration of antibiotic, Test Organism 10: Test Organism 10, strain of Streptococcus faecalis
From the text: as §1

[3] = system: Staphylococcus epidermidis; assay: as above; assay type: cell-based; design: minimum inhibitory concentration of antibiotic, Test Organism 8: unit not given here; settings: for minimum inhibitory concentration of antibiotic, Test Organism 6: Test Organism 6, strain of Staphylococcus epidermidis; for minimum inhibitory concentration of antibiotic, Test Organism 8: Test Organism 8, strain of Staphylococcus epidermidis; for minimum inhibitory concentration of antibiotic, Test Organism 11: Test Organism 11, strain of Staphylococcus epidermidis; for minimum inhibitory concentration of antibiotic, Test Organism 13: Test Organism 13, strain of Staphylococcus epidermidis; for minimum inhibitory concentration of antibiotic, Test Organism 14: Test Organism 14, strain of Staphylococcus epidermidis
From the text: as §1

[4] = pI (analytical data, Table 2); assay type: physicochemical
From the text: Using substantially the procedures of both Examples 1 and 2, the compounds of Examples 3-15 were obtained by using the appropriate glycopeptide and amine starting materials.

Compound	minimum inhibitory concentration of antibiotic, Test Organism 1 (Staphylococcus aureus) [µg/mL]	minimum inhibitory concentration of antibiotic, Test Organism 2 (Staphylococcus aureus) [µg/mL]	minimum inhibitory concentration of antibiotic, Test Organism 3 (Staphylococcus aureus) [µg/mL]	minimum inhibitory concentration of antibiotic, Test Organism 4 (Staphylococcus aureus) [µg/mL]	minimum inhibitory concentration of antibiotic, Test Organism 5 (Staphylococcus aureus) [µg/mL]	minimum inhibitory concentration of antibiotic, Test Organism 7 [1] [µg/mL]	minimum inhibitory concentration of antibiotic, Test Organism 12 [2] [µg/mL]	minimum inhibitory concentration of antibiotic, Test Organism 9 (Streptococcus faecalis) [µg/mL]	minimum inhibitory concentration of antibiotic, Test Organism 10 (Streptococcus faecalis) [µg/mL]	minimum inhibitory concentration of antibiotic, Test Organism 6 [3] [µg/mL]	minimum inhibitory concentration of antibiotic, Test Organism 8 [3]	minimum inhibitory concentration of antibiotic, Test Organism 11 [3] [µg/mL]	minimum inhibitory concentration of antibiotic, Test Organism 13 [3] [µg/mL]	pI [4]	minimum inhibitory concentration of antibiotic, Test Organism 14 [3] [µg/mL]
CCCCCCCCCC(=O)NC1C(Oc2c3cc4cc2Oc2c(Cl)cc(cc2Cl)C(O)C2NC(=O)C(NC(=O)C4NC(=O)C4NC(=O)C(NC(=O)C(NC)c5ccc(O)c(c5)Oc5cc(O)c(Cl)c4c5)C(O)c4ccc(c(Cl)c4)O3)c3ccc(O)c(c3)-c3c(OC4OC(CO)C(O)C(O)C4O)cc(O)cc3C(C(=O)NCCO)NC2=O)OC(C(=O)NCCO)C(O)C1O (stereo not shown) [Compound 2l, Ardacin A-di-(2-hydroxyethyl amide)]	200	200	200	400	400	800	800	100	100	1600	0.4	800	200	7.3	–
CNC1C(=O)NC2C(=O)NC(C(=O)NC3C(=O)NC4C(=O)NC(C(=O)NC(C(=O)NCCO)c5cc(O)cc(O)c5-c5cc4ccc5O)C(O)c4cc(Cl)c(c(Cl)c4)Oc4cc3cc(c4O)Oc3ccc(cc3Cl)C2O)c2cc(cc(O)c2Cl)Oc2cc1ccc2O (stereo not shown) [Compound 2d, Ardacin aglycone-(2-hydroxyethyl amide)]	50	50	50	200	200	800	400	200	–	400	–	800	200	7.1	400
CNC1C(=O)NC2C(=O)NC(C(=O)NC3C(=O)NC4C(=O)NC(C(=O)NC(C(N)=O)c5cc(O)cc(OC6OC(CO)C(O)C(O)C6O)c5-c5cc4ccc5O)C(O)c4cc(Cl)c(c(Cl)c4)Oc4cc3cc(c4O)Oc3ccc(cc3Cl)C2O)c2cc(cc(O)c2Cl)Oc2cc1ccc2O (stereo not shown) [Compound 2n, Ardacin mannosylaglycone amide]	200	800	100	3100	400	1600	1600	200	–	1600	–	6300	1600	7.1	1600
CCCCCCCCCC(=O)NC1C(Oc2c3cc4cc2Oc2c(Cl)cc(cc2Cl)C(O)C2NC(=O)C(NC(=O)C4NC(=O)C4NC(=O)C(NC(=O)C(NC)c5ccc(O)c(c5)Oc5cc(O)c(Cl)c4c5)C(O)c4ccc(c(Cl)c4)O3)c3ccc(O)c(c3)-c3c(OC4OC(CO)C(O)C(O)C4O)cc(O)cc3C(C(N)=O)NC2=O)OC(C(N)=O)C(O)C1O (stereo not shown) [Compound 2j, Ardacin A diamide]	800	1600	800	3100	1600	3100	3100	200	100	6300	6.3	6300	3100	7.2	800

— patent US4882313A, “Carboxamide derivatives of glycopeptides” (SmithKline Beckman Corporation, priority 1987, dated 1989)
